What all share (assay type): in vitro ADME, Alopecurus myosuroides
Data set [1] deals with AmCYP04 (Seq ID 27). Nature of the data set: Herbicide degradation in transgenic yeast cells expressing cytochrome P450 AmCYP04. The conditions noted are these: transgenic yeast cells (S. cerevisiae BJ5459) expressing AmCYP04, Seq ID 27, recovery of herbicide in reference to control, UPLC-MS/MS. The text has this:
(§1) The cDNA of CYP450 monooxygenase genes were synthesized with an optimized codon usage for yeast, cloned via uniqueBamHI-SalI restriction sites in the low copy pESC-ura expression vector (Agilent Technologies). Constructs were transformed into S. cerevisiae wild type strain BJ5459 (MATa ura3-5 trp lys2-801 leu2Δ1 his3Δ200 pep4Δ::HIS3 prb1Δ1.6R can1 GAL cir^+; ATCC 208284) using a Yeast Maker Transformation System from Clontech and verified by colony PCR. Positive clones were selected on minimal synthetic-defined media (SD) supplemented with appropriate dropout solution. The strain had no obvious phenotypes. Cells were induced in SG-Ura medium (same composition as SD but with galactose instead of glucose) for 24 h (Pompon et al., Methods in Enzymology 272:51-64 (1996); Urban et al., Eur. J. Biochem. 222:[…] (1994)). Optimal heterologous protein expression was assayed using Western Blot analysis.
(§2) 96 deep well growth plates (STARLAB GmbH) charged with 700 μL SDA medium are inoculated with the respective yeast strains from cryostock and incubated at 30° C., 400 rpm. After 48 h, an aliquot is transferred into a new plate with fresh SDA medium 400 rpm. After 4 h the cultures are spun down, the supernatant discarded and the pellets resuspended in 700 μL pre-warmed SGA media to induce protein expression at 30° C. and 400 rpm. After an incubation time of 24 h, 7 μL herbicide solution (500 μM DMSO stock solution) or solvent control is added to the yeast culture incubated for additional 24 h. The herbicide conversion is stopped by adding 700 μL acetonitrile followed by ultrasonification. The homogenate is prepared for UPLC-MS/MS analysis. The degradation rate was calculated by the determination of the recovery of the herbicide in reference to the control.

The test system of data set [2] is AmCYP01 (Seq ID 2). Nature of the data set: Herbicide degradation in transgenic yeast cells expressing cytochrome P450 AmCYP01. The conditions noted are these: transgenic yeast cells (S. cerevisiae BJ5459) expressing AmCYP01, Seq ID 2, recovery of herbicide in reference to control, UPLC-MS/MS.
Text: as §1, §2

Data set [3] deals with AmCYP03b (Seq ID 6). The experiment in a line: Herbicide degradation in transgenic yeast cells expressing cytochrome P450 AmCYP03b. The conditions noted are these: transgenic yeast cells (S. cerevisiae BJ5459) expressing AmCYP03b, recovery of herbicide in reference to control, UPLC-MS/MS.
Text: as §1, §2

Data set [4] deals with AmCYP12_1 (Seq ID 45). The experiment in a line: Herbicide degradation in transgenic yeast cells expressing cytochrome P450 AmCYP12_1. The conditions noted are these: transgenic yeast cells (S. cerevisiae BJ5459) expressing AmCYP12_1, Seq ID 45, recovery of herbicide in reference to control, UPLC-MS/MS.
Text: as §1, §2

In data set [5] the test system is AmCYP03_1 (Seq ID 4). The experiment in a line: Herbicide degradation in transgenic yeast cells expressing cytochrome P450 AmCYP03_1. The conditions noted are these: transgenic yeast cells (S. cerevisiae BJ5459) expressing AmCYP03_1, Seq ID 4, recovery of herbicide in reference to control, UPLC-MS/MS.
Text: as §1, §2

These results are taken from US10294488B2, “Herbicide-metabolizing cytochrome P450 monooxygenases” (BASF SE, priority 2012, dated 2019).

Consider `O=S1(=O)C(c2c(Cl)cc(Cl)nc2Cl)=C(O)c2ncccc2N1CC(F)F` [Coumarone-derivative 1, 1-(2,2-difluoroethyl)-2,2-dioxo-3-(2,4,6-trichloro-3-pyridyl)pyrido[3,2-c]thiazin-4-ol], for which the “Degradation rate of listed herbicidal compounds within 24 h” value (“Degradation rate” below) was found to be 31 in data set [1]; 0 in data set [2]; 18 in data set [3]; 10 in data set [4]; 25 in data set [5].
`Cc1c(Cl)ccc(Cl)c1C1=C(O)c2ncccc2C(C)(C)S1(=O)=O` [Coumarone-derivative 11, 7-(3,6-dichloro-2-methyl-phenyl)-5,5-dimethyl-6,6-dioxo-thiopyrano[4,3-b]pyridin-8-ol]: the “Degradation rate” value amounted to 0 in data set [1]; 0 in data set [2]; 18 in data set [3]; 0 in data set [4]; 0 in data set [5].
Consider `CC1(C)c2cccnc2C(O)=C(c2ccc(Cl)nc2Cl)S1(=O)=O` [Coumarone-derivative 5, 7-(2,6-dichloro-3-pyridyl)-5,5-dimethyl-6,6-dioxo-thiopyrano[4,3-b]pyridin-8-ol], for which the “Degradation rate” value came to 22 in data set [1]; 14 in data set [2]; 17 in data set [3]; 15 in data set [4]; 2 in data set [5].
Taken in the same sequence, the figures for `CN(c1c(Cl)ccc(C2=C(O)c3ncccc3C(C)(C)S2(=O)=O)c1Cl)S(C)(=O)=O` [Coumarone-derivative 10, N-[2,6-dichloro-3-(8-hydroxy-5,5-dimethyl-6,6-dioxo-thiopyrano[4,3-b]pyridin-7-yl)phenyl]-N-methyl-methanesulfonamide] were 19, 0, 9, 0 and 15.
Taken in the same sequence, the figures for `O=S1(=O)Cc2cccnc2C(O)=C1c1ccccc1C(F)(F)F` [Coumarone-derivative 3, 6,6-dioxo-7-[2-(trifluoromethyl)phenyl]-5H-thiopyrano[4,3-b]pyridin-8-ol] were 9, 0, 0, 27 and 0.
On to `O=S1(=O)C(c2c(Cl)cc(Cl)nc2Cl)=C(O)c2ncccc2N1CC(F)F` [Coumarone-derivative 9, 1-(2,2-difluoroethyl)-2,2-dioxo-3-(2,4,6-trichloro-3-pyridyl)pyrido[3,2-c]thiazin-4-ol], for which the “Degradation rate” value was found to be 18 in data set [1]; 0 in data set [2]; 5 in data set [3]; 0 in data set [4]; 12 in data set [5].
`CCC(CC)Nc1c([N+](=O)[O-])cc(C)c(C)c1[N+](=O)[O-]` [pendimethalin, reference compound]: the “Degradation rate” value came out at 25 in data set [1]; 13 in data set [2]; 24 in data set [3]; 16 in data set [4]; 24 in data set [5].
